Data on eleven compounds can be found in ChEMBL document CHEMBL3616465, “Neutrophil elastase inhibitors for the treatment of (cardio)pulmonary diseases: Into clinical testing with pre-adaptive pharmacophores” (Bioorg Med Chem Lett, 2015).

Data set [1] in a line: Half life in human hepatocytes at 1 uM by LC/MS-MS analysis.
In the next data set the target is Pancreatic elastase (Sus scrofa, UniProt P08419+P00772). Kind of data set: Inhibition of porcine pancreatic elastase using as succinyl-Ala-Ala-Ala-p-nitroanilide as substrate measured every 1 min by spectrophotometric analysis. Format: protein assay.
Data set [2] is described as follows: Half life in po dosed human administered as qd. It counts as ADME, organism-based. As to conditions: in vivo.
The target in data set [3] is T1, Neutrophil elastase (Homo sapiens) (UniProt P08246).
T1 sequence (whole entry): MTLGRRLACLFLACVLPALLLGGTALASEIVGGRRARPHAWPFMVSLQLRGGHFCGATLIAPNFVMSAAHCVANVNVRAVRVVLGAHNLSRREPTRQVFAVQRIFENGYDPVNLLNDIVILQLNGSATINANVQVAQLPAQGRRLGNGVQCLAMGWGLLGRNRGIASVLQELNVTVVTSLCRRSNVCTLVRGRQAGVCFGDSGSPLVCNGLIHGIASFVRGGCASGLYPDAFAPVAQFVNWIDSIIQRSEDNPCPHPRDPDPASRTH
As to conditions: Blood.
Description: (§1) Inhibition of neutrophil elastase in human whole blood using MeO-Succ-Ala-Ala-Pro-Val-pNA as substrate after 30 mins by colorimetric analysis

The target of data set [4] is T2, Neutrophil elastase (Homo sapiens, UniProt P08246).
T2 sequence (P08246 whole entry): T1 sequence (whole entry)
Kind of data set: Inhibition of human neutrophil elastase using MeO-Succ-Ala-Ala-Pro-Val-AMC as substrate after 30 mins by fluorescence assay.

Data set [5] concerns the target T2, Neutrophil elastase. Kind of data set: Inhibition of neutrophil elastase in human plasma using MeOSuc-Ala-Ala-Pro-Val-AMC as substrate by fluorescence assay.
Data set [6] relates to Homo sapiens. Kind of data set: Inhibition of sputum neutrophil count in cystic fibrosis patient at 60 mg/kg, po bid measured at 24 hrs relative to control. It counts as functional.
Data set [7] addresses T2, Neutrophil elastase. Kind of data set: Inhibition of human neutrophil elastase using MeO-Suc-Ala-Ala-Pro-Val 7-amido-4-methylcoumarin as substrate preincubated for 15 mins followed by substrate addition measured after 90 mins.
Data set [8] is filed under the species Homo sapiens. Kind of data set: Selectivity ratio of IC50 for human PR3 to IC50 for human neutrophil elastase.
For data set [9], the species on record is Homo sapiens. Kind of data set: Selectivity ratio of IC50 for human CatG to IC50 for human neutrophil elastase.
The species named for data set [10] is Homo sapiens. Kind of data set: Selectivity ratio of IC50 for human chymotrypsin to IC50 for human neutrophil elastase.
Data set [11] is described as follows: Selectivity ratio of IC50 for mouse neutrophil elastase to IC50 for human neutrophil elastase.
A short description of data set [12]: Selectivity ratio of IC50 for porcine pancreatic elastase to IC50 for human neutrophil elastase.
Data set [13] is filed under the species Homo sapiens. Kind of data set: Selectivity ratio of IC50 for human trypsin to IC50 for human neutrophil elastase.
The nature of data set [14]: Selectivity ratio of IC50 for rat neutrophil elastase to IC50 for human neutrophil elastase.
The target in data set [15] is T2, Neutrophil elastase. Kind of data set: Inhibition of human neutrophil elastase.
In data set [16] the target is T2, Neutrophil elastase.
Description: as §1

As usually defined, the half-life is the time needed for the level to fall by half in the phase considered. By IC50 is commonly meant the concentration that inhibits the measured activity by half. Low readings indicate greater potency in that assay, high ones weaker potency in that assay. Usually inhibition in vivo stands for the relative decrease from the control value, in per cent. Read a high inhibition in vivo as a response far below the control. A word on the Ki: it is the dissociation constant of the complex between target and ligand, obtained from inhibition or displacement. Higher therefore signals lower affinity.

Structures are written as SMILES.

In turn, `CS(=O)(=O)c1cc(C#N)ccc1[C@@H]1C2=C(CCC2=O)N(c2cccc(C(F)F)c2)C(=O)N1C(=O)NC1CC1` came in with a half-life at 1 µM in [1] above 2.17 h.
In the case of `CC(C)(C)C(=O)Oc1ccc(S(=O)(=O)Nc2ccccc2C(=O)NCC(=O)[O-])cc1.[Na+]`, at Pancreatic elastase, the half-inhibitory concentration (IC50) was determined as 5600 nM.
Consider `CC1=C(C#N)[C@@H](c2ccc(C#N)cc2S(C)(=O)=O)N(C)C(=O)N1c1cccc(C(F)(F)F)c1`, for which, in data set [2], the half-life was 120 h.
In [3], `CC(C)C[C@H]1C(=O)N(COC(=O)Cc2ccccc2Nc2c(Cl)cccc2Cl)S(=O)(=O)N1C` yielded a K of 9.8 ×10⁵ /M/s.
With `CNC(=O)N1C(=O)N(c2cccc(C(F)(F)F)c2)C2=C(C(=O)CC2)[C@H]1c1ccc(C#N)cc1S(C)(=O)=O`, the IC50 on Neutrophil elastase [4] and on Neutrophil elastase [5] was below 1 nM each time. The compound further displayed a half-life at 1 µM in data set [1] above 2.17 h.
Take `Cc1c(-c2ccnn2C)cc(C(=O)NCc2ccc(S(C)(=O)=O)cn2)c(=O)n1-c1cccc(C(F)(F)F)c1`: in the data set with Homo sapiens [6], the inhibition in vivo at 60 mg/kg is 50%. Besides, on Neutrophil elastase [7], the inhibition constant Ki is 12 nM. The Ratio IC50 in the data set listed under Homo sapiens [8] was above 1900; in the data set filed under Homo sapiens [9] it was above 680; in the data set filed under Homo sapiens [10], above 2000; in [11], 24; in data set [12], above 2000; in the data set filed under Homo sapiens [13] it was above 2000. The Ratio IC50 in data set [14] amounted to 18.
Regarding `CS(=O)(=O)c1cc(C#N)ccc1[C@@H]1C2=C(CCC2=O)N(c2cccc(C(F)(F)F)c2)C(=O)N1CC#N`, the half-maximal inhibitory concentration (IC50) on Neutrophil elastase [4] and on Neutrophil elastase [5] was below 1 nM each time. In data set [1], this compound displayed a half-life at 1 µM above 2.17 h.
In turn, `Cc1c(-c2ccnn2-c2ccc(C#N)cc2)cn2nc(NC(=O)CN(C)C)nc2c1-c1cccc(C(F)(F)F)c1` showed an IC50 at Neutrophil elastase [15] below 20 nM.
At Neutrophil elastase [16], `CCc1cc(OC)cc2nc(-c3cccnc3N3CC[C@H](N(C)C)C3)oc(=O)c12` showed a half-maximal inhibitory concentration (IC50) of 7 nM.
In turn, `N#Cc1ccc([C@H]2NC(=O)N(c3cccc(C(F)(F)F)c3)C3=C2C(=O)CC3)cc1` yielded a half-life at 1 µM in [1] above 2.17 h.
On Neutrophil elastase [4], `COC(=O)C1=C(C)N(c2cccc(C(F)(F)F)c2)c2n[nH]c(=O)n2[C@@H]1c1ccc(C#N)cc1CCCN(C)C` had a half-maximal inhibitory concentration (IC50) below 20 nM.
